Reference: patent publication US6919374B1, “Viscosity modulating substance and use thereof” (Oklahoma Medical Research Foundation, priority 1999, dated 2005)
“Also recorded” adds a separate entry of the source. Where a SMILES comes first, the peptide text is derived from it.

Experiments:
[1] = system: whole blood of sickle cell patients; assay: Whole blood viscosity by RBC pipette method before and after administration of APM to sickle cell patients; format: in vivo; conditions: for blood viscosity after treatment: baseline vs 120 minutes post-treatment, APM 1.5, 3 or 6 mg/kg body weight
Experimental: Blood samples were obtained from ten patients having homozygous HgBss disease or heterozygous Hgbsc disease before and after a blinded administration of APM at 1.5 (low dose), 3 (medium dose), or 6 (high dose) milligrams per kilogram body weight.
Viscosity determinations using the RBC pipette method of Wright and Jenkins (1970, Blood 36:516) were made on each blinded whole blood sample before and 120 minutes after blinded administration of APM. Each measurement was made in triplicate. Control viscosity measurements using saline and water for each patient and normal whole blood were also made to validate the viscosity measurements.
(§1) To measure viscosity, 1.01 cc of the test fluid, i.e., either water, saline or blood, was drawn into an RBC pipette using a 50 cc syringe attached via rubber tubing to the top of the RBC pipette. Using a constant pressure of 20 mm by maintaining the pressure with visual feedback and hand pressure, the amount of time it took for the test fluid to drip out of the RBC pipette was measured with a stopwatch. Each measurement was made in triplicate. Changes in viscosity from baseline for patient blood samples were recorded and compared to normal controls.

patient blood samples = assay: Whole blood viscosity after in vitro addition of APM to patient blood samples; format: cell-based; conditions: HgBss patients; samples 480 minutes post-treatment; 1 or 2 milligrams/milliliter APM in vitro
Experimental: as §1
(§2) Samples with high viscosity readings at 480 minutes or 1,440 minutes post-treatment, chosen to represent patients with a validated response to APM who were returning to normal, were divided and treated with an additional 0, 1, or 2 milligrams/milliliter APM in vitro, in an effort to measure whether a second inducible sickling response was possible and if a second response to the in vitro APM addition could be observed. The viscosity of each sample at 480 minutes post-treatment was measured.

[2] = system: sickle cells in HgBss blood; assay: Metabisulfite slide test for sickling after APM given orally; format: in vivo, patients
Experimental: For comparative purposes, the number of sickle cells relative to the number of normal cells was obtained at 0, 30, 60, 120, 240, 480, and 1440 minutes after administration of APM according to the method given in Example 2.
Blood was drawn before and 120 minutes after treatment with 0, 1.5, 3, or 6 milligrams APM per kilogram body weight in a blinded fashion from the ten patients into heparin tubes, stored in a refrigerator at approximately 10° C. and routinely tested within 36 hours of collection.
Normal blood devoid of abnormal hemoglobin was used as a control. For each heparinized patient blood sample and the normal blood control, experimental samples were prepared containing 0.25 milliliters of normal saline and 0.25 milliliters of blood. […]
To account for natural or non-induced sickling of the experimental samples, a baseline sickling count was obtained for each heparinized patient blood sample and the normal blood control. […] Photomicrographs were taken with a phase contrast microscope at 400 magnification, and the results were obtained from the photomicrographs as the number of sickle cells per 100 cells counted. This number of sickle cells per 100 cells counted was considered the baseline sickling count and was subtracted from the cell counts obtained with the metabisulfite induced samples. […]

[3] = system: sickle cells in HgBss blood; assay: Sickling after in vitro addition of APM to patient blood; format: cell-based, patients
Experimental: as §2
Using metabisulfite to reduce HbS to the deoxy form (Daland, G. A. and Castle, W. B. 1948. J Lab Clin Med 33:1082-1088; Nelson, D. A. In Todd-Sanford-Davidsohn Clinical Diagnosis by Laboratory Methods, J. B. Henry, ed. (W.B. Saunders Co., Philadelphia, 1979, vol. 1, p. 1020), a baseline sickling test was run on each experimental sample. The sickling inducing agent was prepared fresh daily as follows: 10 milligrams metabisulfite in 1 milliliter isotonic saline. Multiple test slides were prepared for each experimental sample by adding approximately 300 microliters of the metabisulfite inducing agent to 50 microliters of well mixed blood and placing about 4 drops of the experimental sample onto the surface of a glass slide, placing a coverslip over the sample, and sealing the coverslip with a petroleum jelly bead to prevent oxygen from entering the sample. […]

[4] = clinical trial; osteo- and mixed osteo- and rheumatoid arthritis; cited from earlier work
[5] = system: red blood cells containing HbS; conditions: WO 00/18418; cited from earlier work
[6] = with the exception of patients suffering from phenylketonuria; cited from earlier work

COC(=O)[C@H](Cc1ccccc1)NC(=O)[C@@H](N)CC(=O)O [APM, N-L-alpha-aspartyl-L-phenylalanine 1-methyl ester] (H-Asp-Phe-OMe)
blood viscosity after treatment ([1]; HgBss patients): decreased; also recorded: reduces the viscosity | whole blood viscosity ([1]; in vivo): lowers whole blood viscosity | viscosity compared against Pirofsky's change in viscosity vs. hematocrit standard ([1]; patients with sickle cell disease (HgBss)): decreased | viscosity compared against Pirofsky's change in viscosity vs. hematocrit standard ([1]; patients with sickle cell trait (Hbgsc)): increased | blood viscosity after treatment ([1]; sbthal patients): decreased | viscosity of blood samples after in vitro APM addition, compared to the control (patient blood samples): decreased; also recorded: reduces | number of sickle cells [2]: reduces the number of sickle cells | number of sickle cells [3]: reduces the number of sickle cells | pain and inflammation of arthritis [4]: alleviate the pain and inflammation | capacity of red blood cells containing HbS to sickle with hypoxemia [5]: reduction | safety status [6]: generally regarded as safe
